For test [1], the system named is cap-dependent translation. Description: HeLa in vitro translation assay, cap-dependent reporter. Format: biochemical, human. Particulars: for fLuc (CAP) luminescence normalized to DMSO control, Average: HeLa lysate IVT, n=3. The method, then: HeLa In vitro translation (IVT) assay kits were purchased from Thermo Fisher(cat#88882). Bicistronic reporter mRNA was prepared from using a CMV/T7-renilla luciferase-IRES(FDMV)-firefly luciferase reporter vector as template DNA (supplied by Oxford Genetics Ltd.) using Message Machine T7 Ultra transcription Kit (Thermo Fisher, cat# AM1345) to generate in vitro transcribed mRNA. DNA template was removed with Turbo DNase from the transcription kit and the mRNA purified using RNeasy columns (Qiagen, cat#74204). RNA concentration was adjusted to 1 µg/µl using a Nanodrop. In vitro translation assays were then set up using a HeLa IVT kit according to the manufacturer’s protocol. The reaction was analysed using Dual Glo luciferase reporter assays (Promega, cat#E2920). Compounds were diluted from 100x DMSO stocks 1:10 in PBS and 2.5 µl transferred to 96 well PCR plates (Starlab, cat#I1402-9700). 22.5 µl IVT reaction mix (1.5 mL HeLa lysate, 60 µl RNAsin (Promega, cat#N2115), 300 µl accessory proteins, 600 µl reaction buffer, 200 µl nuclease free water and 30 µl […] mRNA) was added and incubated for 30 min at 30 °C (PCR alphacycler 4, PCRmax, Stone, Staffordshire, UK). The samples were placed on ice for 10 min, then 10 µl was removed and transferred to a white 96 well assay plate (Corning, cat#3917). […]

The subject of the next test is parent H1299 cells. Kind of test: MCL1 and growth in parental H1299 cells. Format: cell-based, human. Here is the method:
Real time monitoring of cell growth was performed with the IncuCyte ZOOM live cell imaging system (Essen BioSciences, USA). Cells were seeded in 96 well plates (Corning, cat#353072) and treated on the next day. The resulting phase-contrast images were analysed using IncuCyte ZOOM 2018A software and results were expressed as percentage confluency of cells.
After seeding overnight in 6 well plates (Corning, cat#353046), cells were treated with compounds for the indicated times and concentration, harvested and the cell pellet lysed on ice in cell lysis buffer (Cell Signaling, cat#9803), supplemented with 1x Halt^TM protease inhibitor cocktail (Fisher Scientific, cat#78429) and cOmplete^TM protease inhibitor cocktail (Sigma-Aldrich, cat#11836153001) for 1 hr. Protein was quantified using BCA protein kit (Fisher Scientific, cat#23225). Western blot was performed using NuPAGE^TM 4–12% Bis-Tris gels (Fisher Scientific, cat#NP0336BOX) and transferred using the Invitrogen iBLOT^TM gel transfer device system (Fisher Scientific, Cat#IB21001). […] All primary antibodies were diluted (1:1000) in 5% BSA (Sigma-Aldrich, cat#A7906) in 1x TBS and 0.1% Tween 20 (Sigma-Aldrich, cat#P1379), except for vinculin (1:2000) that was diluted in casein blocker (Sigma-Aldrich, cat#1610782). […] Quantitative densitometry analysis of protein bands was performed using Image J v1.53 software.

Test [2] deals with eIF4E WT or mutant expression. Description: Immunoblot of eIF4E rescue construct expression. Particulars: n=3. The format is cell-based, human. The text has this:
Supplementary Fig. 17. Transfection of wild type eIF4E or a series of mutants […]
clone. a Scheme of the workflow to generate genetic rescue models by expression of wild type (WT) eIF4E or mutant eIF4E in the dTAG eIF4E CRISPR clones (Created in BioRender. Powers, M. (2024) https://BioRender.com/q02f176). b Representative […]
replicates). Vinculin was used as a loading control. The immunoblots were cropped to […]
(1 picture or pasted object on this page, not shown here) […]
aid interpretation of the data, original immunoblot images for all repeats are available in the Supplementary Source Data. d Quantification of MCL1 immunoblot signals using Image J. Results are expressed as % MCL-1 normalized to vinculin (mean ± SEM from (c) plus 2 additional biological replicates (see Supplementary Source Data).
Significance (p<0.05) was determined using a one sample t-test (two-tailed) comparing treatment with the control from each cell line. Significance was observed […]
p=0.0153) expressing cells. p values are denoted as *p<0.05, **p<0.01, ***p<0.001, […]
and f 16 hr from (c), using Image J. A one sample t -test was performed for each cell treatment compared to their control and found no significant differences for either tim e point (p>0.05) . Comparison of the control conditions for expression of each mutant with the overexpressed WT using an ordinary one-way ANOVA with Tukey multiple comparisons test found all mutants p<0.001 except S209A (p=0.0337) at 6 hr and all
On the technique in general: Immunoblotting shows a protein as a band on a membrane.

As to `CC[C@H](O[C@H](C)CO)c1ccc(-c2ccccc2F)cc1NCCO` [Compound 4], the “fLuc (CAP) luminescence normalized to DMSO control, Average” value in test [1] (1 μM) is listed as 79.4%; in test [1] (10 μM), 29.0%; in test [1] (100 μM), 23.9%.

For the compound `CC[C@@H](O[C@H](C)CO)c1ccc(-c2ccccc2F)cc1NCCO` [Compound 5], in test [1] (1, 10, 100 µM), the “effect on cap-dependent translation” value is given as “no significant effect”. The “fLuc (CAP) luminescence normalized to DMSO control, Average” value in test [1] (1 μM) is given as 115.8%; in test [1] (10 μM), 67.5%; in test [1] (100 μM) it was 84.6%.

Take `CC[C@H](C(=O)N1CCCC[C@H]1C(=O)O[C@H](CCc1ccc(OC)c(OC)c1)c1ccccc1OCC(=O)NCCCCCCC(=O)N[C@H](C(=O)N1C[C@H](O)C[C@H]1C(=O)N[C@@H](C)c1ccc(-c2scnc2C)cc1)C(C)(C)C)c1cc(OC)c(OC)c(OC)c1` [dTAG^V-1]: in the test with parent H1299 cells, the “effect on MCL1 or proliferation in parent cells” value was “no effect on MCL1 or proliferation”. Moreover, the “Quantification of eIF4E (6 hr) normalised to WT expression, Average” value in test [2] (C3-1, 0.5 uM) turned out to be 0.00; in test [2] (C3-1, 1 uM), 0.00; in test [2] (L85R, 0.5 uM), 51.11; in test [2] (L85R, 1 uM), 46.78; in test [2] (L134R, 0.5 uM) it was 32.49; in test [2] (L134R, 1 uM), 23.94. Besides, the “Quantification of eIF4E (6 hr) normalised to WT expression, Average” value in test [2] (S209A, 0.5 uM) was found to be 94.19; in test [2] (S209A, 1 uM), 88.26; in test [2] (W56A, 0.5 uM), 56.71; in test [2] (W56A, 1 uM), 52.12; in test [2] (W73F/L85R, 0.5 uM) it was 30.95; in test [2] (W73F/L85R, 1 uM), 30.11. In addition, the “Quantification of eIF4E (6 hr) normalised to WT expression, Average” value in test [2] (W73F, 0.5 uM) came out at 72.55; in test [2] (W73F, 1 uM), 71.88; in test [2] (WT, 0.5 uM), 100.00; in test [2] (WT, 1 uM), 100.00. In addition, the “Quantification of eIF4E (16 hr) normalised to WT expression, Average” value in test [2] (C3-1, 0.5 uM) came out at 0.00; in test [2] (C3-1, 1 uM), 0.00; in test [2] (L85R, 0.5 uM), 19.14; in test [2] (L85R, 1 uM), 21.33; in test [2] (L134R, 0.5 uM), 17.61; in test [2] (L134R, 1 uM), 19.17. Moreover, the “Quantification of eIF4E (16 hr) normalised to WT expression, Average” value in test [2] (S209A, 0.5 uM) came to 103.66; in test [2] (S209A, 1 uM), 106.16; in test [2] (W56A, 0.5 uM (Conc column empty, by row)), 63.22; in test [2] (W56A, 1 uM (Conc column empty, by row)), 50.88; in test [2] (W73F/L85R, 0.5 uM), 15.77; in test [2] (W73F/L85R, 1 uM), 16.64. Also, the “Quantification of eIF4E (16 hr) normalised to WT expression, Average” value in test [2] (W73F, 0.5 uM) amounted to 42.45; in test [2] (W73F, 1 uM), 30.23; in test [2] (WT, 0.5 uM), 100.00; in test [2] (WT, 1 uM), 100.00.
